Experimental data reported in US20240390372A1, “METHODS OF TREATING HAIR-LOSS DISORDERS WITH TYK2 INHIBITORS” (Bristol-Myers Squibb Company, priority 2021, published 2024).

Key:
[1] = system: microdissected hair follicles from human scalp; assay: Prophylactic assay: pre-treatment before IL-12+IL-18, CD3+ T cell and CD56+ NK cell quantification; type: cell-based; settings: pre-treatment 300 nM, 5-6 days; IL-12+IL-18 added on day 2
Experimental: (§1) Resident immune cell populations were assessed by quantification of CD3-positive cells and of CD56-positive cells. Gene expression of treated hair follicles was assessed using whole transcriptome analysis. IFNγ production was quantified by enzyme-linked immunosorbent assay (R&D systems). IL-12RB2-expressing cells were evaluated in healthy donors, acute AA patients, and chronic AA patients using immunohistomorphometry.
The effect of pre-treatment with the compound of Formula (II) on T cell and NK cell expansion following IL-12 and IL-18 stimulation was also examined. 22-40 hair follicles, obtained from 4-5 independent healthy donors, were incubated with vehicle, with the compound of Formula (II) (300 nM), or with tofacitinib (400 nM) for 5-6 days. On day 2 of culture, vehicle, or IL-12 (3 ng/ml) and IL-18 (20 ng/mL) were added. Resident immune cell populations were assessed by quantification of CD3-positive cells and of CD56-positive cells. FIGS. 23-27 provide the results. The graphs in FIGS. 23-26 show mean±SEM and results of the Dunn's multiple comparison test (*p<0.05; ***p<0.001). […] Pre-treatment with the compound of Formula (II) prevented an elevation of CD3+ T cell frequency and of CD56+ NK cell frequency, consistent with the results above.

[2] = system: microdissected hair follicles from human scalp; assay: Prophylactic assay: pre-treatment before IL-12+IL-18, MHC class I and II levels; type: cell-based
Experimental: To address the role of IL-12 in AA pathobiology and its potential as a therapeutic target, microdissected hair follicles from human scalp were cultured in the presence of IL-12 (3 ng/mL) and IL-18 (20 ng/mL) and in the presence or absence of a selective allosteric TYK2 inhibitor, the compound of Formula (II) (300 nM). IFNγ (75 UI/mL) was used as a positive control to induce immune privilege (IP) collapse, and tofacitinib was used as a positive control for blocking IFNγ signaling. Hair follicle immune privilege (HF-IP) was assessed by quantitative immunohistomorphometry of MHC class I, of MHC class II, and of MHC class chain-related protein A and MHC class chain-related protein B (MICA/B).
Hair follicles were pre-treated with the compound having the structure of Formula (II) (denoted “BMS” in the figures), followed by the addition of IL-12 and IL-18, in a prophylactic assay. Tofacitinib was used as a control, for comparison. For this assay, each group included 19-40 hair follicles, obtained from 3-5 independent healthy donors. The groups were treated as follows: with vehicle, with the compound of Formula (II) (300 nM), or with tofacitinib (400 nM) for 5-6 days; on day 2 of culture, vehicle, or IL-12 (3 ng/ml) and IL-18 (20 ng/mL) were added. Levels of MHC class I and of MHC class II were assessed as described above, and FIGS. 17-22 provide the results. The graphs in FIGS. 17-20 show mean±SEM and results of the Dunn's multiple comparison test (*p<0.05; **p<0.01; ****p<0.0001). FIGS. 21 and 22 show staining of MHC-I and MHC-II, respectively, in hair follicles (scale bar=100 μm).

[3] = system: microdissected hair follicles from human scalp; assay: Therapeutic assay: compound added after IL-12+IL-18, T cell and NK cell expansion (CD3/CD56 immunostaining); type: cell-based; settings: 300 nM added on day 2 of IL-12+IL-18 culture
Experimental: To assess whether TYK2 inhibition can block ongoing T cell and NK cell expansion, hair follicles were first incubated with vehicle, or with IL-12+IL-18, followed by the addition of the compound of Formula (II) or of tofacitinib. Specifically, 24-33 hair follicles, obtained from 3-4 independent healthy donors, were treated with vehicle, or with IL-12 (3 ng/ml) and IL-18 (20 ng/ml), for 5-6 days. On day 2 of culture, the compound of Formula (II) (300 nM) or tofacitinib (400 nM) was added. T cell expansion and NK cell expansion were assessed by immunostaining for CD3 (T cells) or CD56 (NK cells). The graphs in FIGS. 34-37 show mean±SEM, with p-values from the Dunn's multiple comparison test (*p<0.05; **p<0.01; ***p<0.001; ****p<0.0001). FIG. 38 provides images of staining for CD3 and CD56 in hair follicles (scale bar=50 μm).

[4] = system: microdissected hair follicles from human scalp; assay: Therapeutic assay: compound added after IL-12+IL-18-induced immune privilege collapse, MHC class I and II expression; type: cell-based
From the text: The above assays were adapted to investigate whether TYK2 inhibition can inhibit ongoing IL-12+IL-18-mediated hair follicle immune privilege collapse, and thus whether TYK2 inhibition is a viable therapeutic strategy for treating alopecia areata. In these assays, immune privilege collapse was first induced by treatment with IL-12+IL-18, followed by the addition of the compound of Formula (II).
To assess whether TYK2 inhibition could restore hair follicle immune privilege, 21-31 hair follicles, obtained from 3-4 independent healthy donors, were cultured with vehicle, or with IL-12 (3 ng/mL) and IL-18 (20 ng/ml), for 5-6 days. On day 2 of culture, the compound of Formula (II) (300 nM) or tofacitinib (400 nM) was added until day 5-6. MHC class I expression and MHC class II expression were measured, as was done previously. The graphs in FIGS. 28-31 show mean±SEM, with p-values from the Dunn's multiple comparison test (*p<0.05; **p<0.01; ***p<0.001; ****p<0.0001). FIGS. 32 and 33 show staining of MHC-I and MHC-II, respectively, in hair follicles (scale bar=100 μm). […] As discussed above, MHC class I and II are markers of immune privilege collapse.

[5] = system: ex vivo cultured hair follicles; assay: IFNγ secretion into the medium of ex vivo cultured hair follicles treated with IL-12+IL-18 (ELISA; prophylactic and therapeutic assays); type: cell-based, human; settings: for IFNγ release into the culture medium: hair follicles treated with IL-12+IL-18, assay format not given
Experimental: as §1
The effect of TYK2 inhibition on IFNγ production by hair follicles was also assessed. Specifically, two assays were performed to examine how TYK2 inhibition affects IFNγ secretion into the medium of ex vivo cultured hair follicles treated with IL-12+IL-18. In the prophylactic assay, hair follicles were pre-treated with the compound of Formula (II) or with tofacitinib, and then were cultured in the presence of IL-12+IL-18, after which IFNγ in the culture medium was measured. In the therapeutic assay, hair follicles were initially treated with IL-12±IL-18; then the compound of Formula (II) or tofacitinib was added and the culture continued, after which IFNγ in the culture medium was measured. The data in FIGS. 39 and 40 are based on the amount of IFNγ measured in pooled culture medium from n=8 hair follicles per group, obtained from 1-2 healthy donors. The graphs show mean±SEM from technical duplicates.

[6] = 300 nM for 5-6 days, IL-12 3 ng/mL and IL-18 20 ng/mL added on day 2
[7] = 300 nM added on day 2 until day 5-6 of IL-12+IL-18 culture
[8] = 400 nM added on day 2 until day 5-6 of IL-12+IL-18 culture

Row | SMILES | elevation of CD3+ T cell frequency [1] | elevation of CD56+ NK cell frequency [1] | IL-12+IL-18-mediated upregulation of MHC class I in the outer root sheath [2, 6] | IL-12+IL-18-mediated upregulation of MHC class II in the outer root sheath [2, 6] | effect on MHC class I and II upregulation compared with tofacitinib ([2]; compound 300 nM versus tofacitinib 400 nM, prophylactic) | IL-12 and IL-18-induced immune privilege collapse of hair follicles ([2]; pre-treatment, 300 nM) | NK cell expansion induced by IL-12 and IL-18 (hair follicle epithelium and mesenchyme) [3] | T cell expansion induced by IL-12 and IL-18 (hair follicle epithelium and mesenchyme) [3] | IL-12+IL-18-induced expression of MHC class I [4, 7] | IL-12+IL-18-induced expression of MHC class II [4, 7] | IFNγ release into the culture medium [5] | IL-12+IL-18-induced expression of MHC class I [4, 8] | IL-12+IL-18-induced expression of MHC class II [4, 8] | restoration of IFNγ secretion to baseline ([5]; therapeutic assay: IL-12+IL-18 first, then compound added)
1 | [2H]C([2H])([2H])NC(=O)c1cnc(NC(=O)C2CC2)cc1Nc1cccc(-c2ncc(F)cn2)c1OC [compound of Formula (II)] | prevented | prevented | prevented | prevented | greater than the effect observed with tofacitinib | prevented | reversed | reversed | significantly reduced | significantly reduced | inhibiting IFNγ release | – | – | –
2 | C[C@@H]1CCN(C(=O)CC#N)C[C@@H]1N(C)c1ncnc2[nH]ccc12 [tofacitinib, reference compound] | – | – | – | – | – | – | – | – | – | – | did not decrease | significantly reduced | significantly reduced | such restoration was not observed
